Patent US20240009266A1, “PHARMACEUTICAL COMBINATIONS COMPRISING A PEPTIDE CXCR4 INHIBITOR AND A TAXANE FOR TREATING CANCER” (POLYPHOR AG, priority 2020, published 2024)

What was measured:
[1] = tested on: breast cancer PDX Ma15169; details: for tumor growth inhibition / therapeutic effect (in words): Ma15169 PDX, humanized NOG-EXL mice, treatment day 154-182; for T/C value (treated-to-control tumor volume) at the last day of the study: day 183, Paclitaxel 10 mg/kg i.v. twice weekly, treatment from day 154, 29 days; for response rating according to RECIST criteria: from T/C at day 183 (last day of the study)
Experimental: The study was designed to determine the response of the breast cancer PDX Ma15169 to treatment with Paclitaxel single agent, Balixafortide single agent and the combination of both in humanized NOG-EXL mice. Humanized NOG-EXL mice bearing the breast cancer PDX Ma15169 were treated with Paclitaxel and Balixafortide according to Table 1. Ma15169 is a patient derived xenograft (PDX) that was from a patient with an invasive ductal carcinoma (ypT1a ypN1a R0 G3 L1 V1). The patient tumour was ER/PR as well as Her-2 negative. The tumour material was expanded in 9 donor mice (NOG, Taconic; https://www.taconic.com/mouse-model/ciea-nog-mouse) and fragments of about 10 mm3 were each implanted subcutaneously into the flank of 50 humanized NOG-EXL mice; at this time, the passage number of Ma15169 was #4.
Female NOG-EXL mice with an age of about 4 weeks were used for the constitution of human immune cells. 24 hours before CD34+ cell inoculation mice were irradiated with 1Gy. Human CD34+ cells were isolated from fresh cord blood within the laboratories of EPO (Experimental Pharmacology & Oncology Berlin-Buch GmbH, Berlin-Buch, Germany) and preserved in liquid nitrogen until use. For the study MV16883 a pool of 5 different donors (CB AG 101, CB AG 97, CB KR 104, CB AG 106, CB AG 107) prepared. After thawing the cells were washed with PBS, pooled and washed again followed by Trypan blue staining and cell counting using Neubauer chamber. A total of 5×10^4 vital cells were resuspended in 200 μl PBS and injected intravenously into the tail vain of all mice.
Determination of human immune cells by FACS was performed at days 46, 84 and 115 after cell inoculation (leucocytes CD45+, B cells CD19+, T cells CD3+, NK cells CD56+/CD16+ and monocytes CD14+; Human Immunophenotyping 8-color-Kit (Miltenyi)). The mice were weighed weekly and monitored for general health two times weekly.
The PDX Ma15169 is maintained by EPO (Experimental Pharmacology & Oncology Berlin-Buch GmbH, Berlin-Buch, Germany) as in vivo passage; the passage number for this study was #4. Donor mice (female NOG; Taconic) with tumors of about 1 cm3 were used for the preparation of this study MV16883.
After removal of the tumor tissue from donor mice, the tumors were cut into fragments (2-3 mm diameter—approximately 10 mm3) and placed in cooled RPMI 1640 culture medium until s.c. implantation within 30 minutes. The humanized NOG-EXL mice were anaesthetized with Etomidate and received a small incision in the skin of the left flank. The tumor fragments (one fragment/mouse) were implanted with tweezers and the incision closed with a suture clip (#310417, Covetrus GmbH). The clips were removed after seven days and mice controlled two times weekly by means of palpation. The implantation of tumor fragments was performed 122 days after the inoculation of CD34+ cells.
Tumor bearing mice were stratified into 4 treatment groups according to their tumor volumes at day 154 post CD34+ cell inoculation (32 days after tumor implantation). […] During stratification the animals were individually marked by earmarks.
Paclitaxel (Taxomedac™ comprising paclictaxel, citric acid, ethanol and PEG (30-50) castor oil) was given i.v. at a dose of 10 mg/kg twice weekly. Balixafortide was given s.c. at a dose of 20 mg/kg once daily for the first 5 days and twice daily for 5 days followed by treatment breaks of 2 days until the end of treatment period (FIG. 1). Total treatment duration was 29 days. Successful engraftment of human CD34+ cells was checked by flow cytometry (FACS).
Changes in the human immune cell population in blood were followed-up at the end of the study by FACS analysis.

human CXCR4 receptor = human CXCR4 receptor (Homo sapiens, UniProt P61073); experiment: In vitro receptor binding studies, human CXCR4 receptor
Chain of human CXCR4 receptor (P61073 whole entry): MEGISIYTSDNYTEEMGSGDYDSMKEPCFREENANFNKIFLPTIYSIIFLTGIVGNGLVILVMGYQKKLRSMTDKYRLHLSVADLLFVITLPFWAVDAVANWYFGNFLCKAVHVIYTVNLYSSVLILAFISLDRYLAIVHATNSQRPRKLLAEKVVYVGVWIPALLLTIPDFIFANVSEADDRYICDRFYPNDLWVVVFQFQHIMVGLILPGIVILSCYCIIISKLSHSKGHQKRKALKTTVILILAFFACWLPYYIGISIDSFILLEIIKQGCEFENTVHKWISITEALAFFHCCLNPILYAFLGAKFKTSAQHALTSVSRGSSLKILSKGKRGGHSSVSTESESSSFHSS

[2] = tested on: other potential target receptors; experiment: In vitro receptor binding studies, other receptors

| Compound | tumor growth inhibition / therapeutic effect (in words) [1] | T/C value (treated-to-control tumor volume) at the last day of the study ([1]; Balixafortide 20 mg/kg s.c.) [%] | response rating according to RECIST criteria [1] | optimum T/C value ([1]; found at day 168, Balixafortide 20 mg/kg s.c., p>0.05) [%] | affinity for the human CXCR4 receptor (in words) (human CXCR4 receptor) | binding to other potential target receptors (in words) [2] |
| --- | --- | --- | --- | --- | --- | --- |
| CC(=O)O[C@H]1C(=O)[C@@]2(C)[C@H]([C@H](OC(=O)c3ccccc3)[C@]3(O)C[C@H](OC(=O)[C@H](O)[C@@H](NC(=O)c4ccccc4)c4ccccc4)C(C)=C1C3(C)C)[C@]1(OC(C)=O)CO[C@@H]1C[C@@H]2O [Paclitaxel, reference compound] | significant tumor growth inhibition | 42 | stable disease | – | – | – |
| Cyclo(-Tyr-His-Ala-Cys-Ser-Ala-^DPro-Dab-Arg-Tyr-Cys-Tyr-Gln-Lys-^DPro-Pro-) having a disulfide bond between Cys^4 and Cys^11 [Balixafortide] | inhibited tumor growth marginally | 107 | progressive disease | 79 | significant affinity | general lack of significant binding |
